{"source": "paper PMC4355590", "about": "“A Kinetic Study of the Main Guaco Metabolites Using Syrup Formulation and the Identification of an Alternative Route of Coumarin Metabolism in Humans” (PLoS ONE, 2015)", "key": {"[1]": {"experiment": "Stability in human plasma: short-term, freeze-thaw and long-term", "assay_type": "in vitro ADME", "conditions": "for Mean recovery: n = 8, ± SD", "method": "The samples were vortexed for 2 min and then were kept at room temperature for 8 h. Afterward, the samples were spiked with 50 μL of IS solution and were vortexed (2 min) and submitted to the extraction procedures. The short-term stability was evaluated by comparing the mean recovery of the analytes and the IS obtained from stored samples with the mean values obtained with freshly prepared samples, at same concentration levels.\n(§1) Freeze-thawed, post-preparative and long-term stability assay samples were prepared and evaluated similar to the short-term stability samples. However, the freeze thawing assay was assessed after undergoing three freeze-thaw cycles (one freeze-thaw cycle per day on three consecutive days) and post-preparative assay, maintaining the extracted samples for 24 hours in the Sample Manager (20°C, transparent vials). The long-term stability of human plasma stored at -40°C was assessed at the end of the study (60 days)."}, "[2]": {"experiment": "Initial screening of bioavailability: 60 mL of guaco syrup orally", "assay_type": "in vivo, human", "conditions": "60 mL guaco syrup (17.6 mg COU, 1.1 mg OCA, 8.9 mg KAU), up to 600 min", "method": "All the volunteers fasted for 8 h prior to the administration of guaco syrup and blood collection. […] The anticoagulant used was tetrasodium edetate. […] The pharmacokinetic analysis was performed using a non-compartmental model, considering an extravascular administration route and using WinNonlin Professional software, version 5.3. The relationships among the areas under the curves (r areas = AUC0-t/AUC0-inf), were used to confirm the suitability of the experimental design."}, "[3]": {"experiment": "Post-preparative stability of extracted samples", "assay_type": "physicochemical", "conditions": "for Mean recovery: post-preparative: extracted samples 24 hours at 20°C, n = 8, ± SD; for RE: post-preparative", "method": "as §1"}, "[4]": {"experiment": "Stability of stock solutions and working standard solutions", "assay_type": "physicochemical", "conditions": "for Mean recovery: n = 8, ± SD", "method": "The stability of the stock solutions (1 mg/mL of each analyte and ISs) was evaluated after 30 days of storage in a refrigerator (4°C, amber bottles). The stored solutions were diluted with acetonitrile/water (70:30 v/v) to obtain the same concentration levels as the short-term stability assay. The stability of the stock solutions was evaluated by comparing the mean recovery of the analytes and IS obtained from stored samples to the mean values obtained with freshly prepared samples, at the same concentration levels. The stability of the working standard solutions was assessed using a procedure similar to that described for stock solution stability. […]"}, "[5]": {"conditions": "Long-term: plasma at -40°C, 60 days, high level (1250.0, 750.0, 750.0, 500.0 ng/mL)"}, "[6]": {"conditions": "Long-term: plasma at -40°C, 60 days, low level (50.0, 12.5, 25.0, 10.0 ng/mL)"}, "[7]": {"conditions": "Short-term: plasma at room temperature for 8 h, high level (1250.0, 750.0, 750.0, 500.0 ng/mL)"}, "[8]": {"conditions": "Short-term: plasma at room temperature for 8 h, low level (50.0, 12.5, 25.0, 10.0 ng/mL)"}, "[9]": {"conditions": "three freeze–thaw cycles, plasma, high level (1250.0, 750.0, 750.0, 500.0 ng/mL)"}, "[10]": {"conditions": "three freeze–thaw cycles, plasma, low level (50.0, 12.5, 25.0, 10.0 ng/mL)"}, "[11]": {"conditions": "high level (1250.0, 750.0, 750.0, 500.0 ng/mL)"}, "[12]": {"conditions": "low level (50.0, 12.5, 25.0, 10.0 ng/mL)"}, "[13]": {"conditions": "8 h at room temperature, high level (Coumarin 1250.0, 7-hydroxycoumarin 750.0, o-coumaric acid 750.0, Kaurenoic acid 500.0 ng/mL)"}, "[14]": {"conditions": "8 h at room temperature, high level, stored vs freshly prepared"}, "[15]": {"conditions": "8 h at room temperature, low level (Coumarin 50.0, 7-hydroxycoumarin 12.5, o-coumaric acid 25.0, Kaurenoic acid 10.0 ng/mL)"}, "[16]": {"conditions": "8 h at room temperature, low level, stored vs freshly prepared"}, "[17]": {"conditions": "30 days at 4 °C (stock solutions), high level (1250.0, 750.0, 750.0, 500.0 ng/mL)"}, "[18]": {"conditions": "30 days at 4 °C (stock solutions), low level (50.0, 12.5, 25.0, 10.0 ng/mL)"}}, "data": [{"compound": "O=c1ccc2ccc(O)cc2o1", "note": "[7-HCOU, 7-hydroxycoumarin]", "values": [{"measurement": "Mean recovery", "setting": "[1]; [5]", "value": "674.4 ± 69.7", "unit": "ng/mL"}, {"measurement": "Mean recovery", "setting": "[1]; [6]", "value": "11.7 ± 1.1", "unit": "ng/mL"}, {"measurement": "RE", "setting": "[1]; Long-term, high level", "value": -10.08, "unit": "%"}, {"measurement": "RE", "setting": "[1]; Long-term, low level", "value": -6.19, "unit": "%"}, {"measurement": "Mean recovery", "setting": "[1]; [7]", "value": "738.1 ± 8.4", "unit": "ng/mL"}, {"measurement": "Mean recovery", "setting": "[1]; [8]", "value": "11.7 ± 0.6", "unit": "ng/mL"}, {"measurement": "RE", "setting": "[1]; Short-term, high level", "value": -1.59, "unit": "%"}, {"measurement": "RE", "setting": "[1]; Short-term, low level", "value": -6.24, "unit": "%"}, {"measurement": "RE", "setting": "[1]; freeze–thaw cycles, high level", "value": -4.69, "unit": "%"}, {"measurement": "RE", "setting": "[1]; freeze–thaw cycles, low level", "value": -7.29, "unit": "%"}, {"measurement": "Mean recovery", "setting": "[1]; [9]", "value": "714.8 ± 24.9", "unit": "ng/mL"}, {"measurement": "Mean recovery", "setting": "[1]; [10]", "value": "11.6 ± 0.6", "unit": "ng/mL"}, {"measurement": "plasma levels after guaco syrup without spiking", "setting": "[2]", "value": "did not provide sufficient levels"}, {"measurement": "Mean recovery", "setting": "[3]; [11]", "value": "776.4 ± 18.7", "unit": "ng/mL"}, {"measurement": "Mean recovery", "setting": "[3]; [12]", "value": "11.5 ± 0.7", "unit": "ng/mL"}, {"measurement": "RE", "setting": "[3]; high level", "value": 3.52, "unit": "%"}, {"measurement": "RE", "setting": "[3]; low level", "value": -7.73, "unit": "%"}, {"measurement": "Mean recovery", "setting": "[4]; [13]", "value": "757.9 ± 5.6", "unit": "ng/mL"}, {"measurement": "RE", "setting": "[4]; [14]", "value": 1.06, "unit": "%"}, {"measurement": "Mean recovery", "setting": "[4]; [15]", "value": "11.6 ± 0.6", "unit": "ng/mL"}, {"measurement": "RE", "setting": "[4]; [16]", "value": -7.41, "unit": "%"}, {"measurement": "Mean recovery", "setting": "[4]; [17]", "value": "791.8 ± 60.5", "unit": "ng/mL"}, {"measurement": "Mean recovery", "setting": "[4]; [18]", "value": "11.4 ± 0.9", "unit": "ng/mL"}, {"measurement": "RE", "setting": "[4]; 30 days at 4 °C, high level", "value": 5.57, "unit": "%"}, {"measurement": "RE", "setting": "[4]; 30 days at 4 °C, low level", "value": -8.02, "unit": "%"}]}, {"compound": "O=c1ccc2ccccc2o1", "note": "[COU, 1,2 benzopyrone]", "values": [{"measurement": "Mean recovery", "setting": "[1]; [5]", "value": "1265.7 ± 99.2", "unit": "ng/mL"}, {"measurement": "Mean recovery", "setting": "[1]; [6]", "value": "45.1 ± 3.6", "unit": "ng/mL"}, {"measurement": "RE", "setting": "[1]; Long-term, high level", "value": 1.26, "unit": "%"}, {"measurement": "RE", "setting": "[1]; Long-term, low level", "value": -9.71, "unit": "%"}, {"measurement": "Mean recovery", "setting": "[1]; [7]", "value": "1205.5 ± 31.5", "unit": "ng/mL"}, {"measurement": "Mean recovery", "setting": "[1]; [8]", "value": "52.4 ± 1.7", "unit": "ng/mL"}, {"measurement": "RE", "setting": "[1]; Short-term, high level", "value": -3.56, "unit": "%"}, {"measurement": "RE", "setting": "[1]; Short-term, low level", "value": 4.81, "unit": "%"}, {"measurement": "RE", "setting": "[1]; freeze–thaw cycles, high level", "value": 4.61, "unit": "%"}, {"measurement": "RE", "setting": "[1]; freeze–thaw cycles, low level", "value": 7.62, "unit": "%"}, {"measurement": "Mean recovery", "setting": "[1]; [9]", "value": "1307.7 ± 40.7", "unit": "ng/mL"}, {"measurement": "Mean recovery", "setting": "[1]; [10]", "value": "53.8 ± 2.7", "unit": "ng/mL"}, {"measurement": "plasma levels after guaco syrup without spiking", "setting": "[2]", "value": "did not provide sufficient levels"}, {"measurement": "Mean recovery", "setting": "[3]; [11]", "value": "1281.3 ± 44.2", "unit": "ng/mL"}, {"measurement": "Mean recovery", "setting": "[3]; [12]", "value": "47.6 ± 3.4", "unit": "ng/mL"}, {"measurement": "RE", "setting": "[3]; high level", "value": 5.00, "unit": "%"}, {"measurement": "RE", "setting": "[3]; low level", "value": -9.55, "unit": "%"}, {"measurement": "Mean recovery", "setting": "[4]; [13]", "value": "1293.1 ± 30.5", "unit": "ng/mL"}, {"measurement": "RE", "setting": "[4]; [14]", "value": 3.45, "unit": "%"}, {"measurement": "Mean recovery", "setting": "[4]; [15]", "value": "54.5 ± 3.2", "unit": "ng/mL"}, {"measurement": "RE", "setting": "[4]; [16]", "value": 8.94, "unit": "%"}, {"measurement": "Mean recovery", "setting": "[4]; [17]", "value": "1173.4 ± 67.9", "unit": "ng/mL"}, {"measurement": "Mean recovery", "setting": "[4]; [18]", "value": "56.1 ± 2.3", "unit": "ng/mL"}, {"measurement": "RE", "setting": "[4]; 30 days at 4 °C, high level", "value": -6.13, "unit": "%"}, {"measurement": "RE", "setting": "[4]; 30 days at 4 °C, low level", "value": 12.27, "unit": "%"}]}, {"compound": "O=C(O)/C=C/c1ccccc1O", "note": "[OCA, o-coumaric acid]", "values": [{"measurement": "Mean recovery", "setting": "[1]; [5]", "value": "606.3 ± 26.8", "unit": "ng/mL"}, {"measurement": "Mean recovery", "setting": "[1]; [6]", "value": "22.5 ± 0.4", "unit": "ng/mL"}, {"measurement": "RE", "setting": "[1]; Long-term, low level", "value": -10.20, "unit": "%"}, {"measurement": "Mean recovery", "setting": "[1]; [7]", "value": "750.6 ± 29.0", "unit": "ng/mL"}, {"measurement": "Mean recovery", "setting": "[1]; [8]", "value": "25.2 ± 0.4", "unit": "ng/mL"}, {"measurement": "RE", "setting": "[1]; Short-term, high level", "value": 0.07, "unit": "%"}, {"measurement": "RE", "setting": "[1]; Short-term, low level", "value": 0.79, "unit": "%"}, {"measurement": "RE", "setting": "[1]; freeze–thaw cycles, high level", "value": -2.79, "unit": "%"}, {"measurement": "RE", "setting": "[1]; freeze–thaw cycles, low level", "value": -8.32, "unit": "%"}, {"measurement": "Mean recovery", "setting": "[1]; [9]", "value": "729.0 ± 41.7", "unit": "ng/mL"}, {"measurement": "Mean recovery", "setting": "[1]; [10]", "value": "22.9 ± 1.1", "unit": "ng/mL"}, {"measurement": "plasma levels after guaco syrup without spiking", "setting": "[2]", "value": "did not provide sufficient levels"}, {"measurement": "Mean recovery", "setting": "[3]; [11]", "value": "727.4 ± 34.5", "unit": "ng/mL"}, {"measurement": "Mean recovery", "setting": "[3]; [12]", "value": "22.7 ± 0.6", "unit": "ng/mL"}, {"measurement": "RE", "setting": "[3]; high level", "value": -3.01, "unit": "%"}, {"measurement": "RE", "setting": "[3]; low level", "value": -2.32, "unit": "%"}, {"measurement": "Mean recovery", "setting": "[4]; [13]", "value": "718.0 ± 48.0", "unit": "ng/mL"}, {"measurement": "RE", "setting": "[4]; [14]", "value": -4.26, "unit": "%"}, {"measurement": "Mean recovery", "setting": "[4]; [15]", "value": "22.6 ± 1.3", "unit": "ng/mL"}, {"measurement": "RE", "setting": "[4]; [16]", "value": -9.44, "unit": "%"}, {"measurement": "Mean recovery", "setting": "[4]; [17]", "value": "640.8 ± 45.6", "unit": "ng/mL"}, {"measurement": "Mean recovery", "setting": "[4]; [18]", "value": "22.8 ± 1.2", "unit": "ng/mL"}, {"measurement": "RE", "setting": "[4]; 30 days at 4 °C, high level", "value": -14.55, "unit": "%"}, {"measurement": "RE", "setting": "[4]; 30 days at 4 °C, low level", "value": -8.89, "unit": "%"}]}]}
